Source: the kinase profiling compilation of Christmann-Franck et al. (2016)
Values joined by “and” are separate entries in the source; they are usually repeats but may differ in a detail not shown here. Equal entries are not always repeated.

Tests used:
Assay in all cases: radiometric filter-binding kinase assay, Kinase HotSpot
Details in all cases: compound 0.5 µM; ATP 10 µM
MET (human) = MET (human) (UniProt P08581)
AKT3 (human) = AKT3 (human) (UniProt Q9Y243)
ABL2 (human) = ABL2 (human) (UniProt P42684)
MKNK2 (human) = MKNK2 (human) (UniProt Q9HBH9)
VRK1 (human) = VRK1 (human) (UniProt Q99986)
Chain of VRK1 (human) (Q99986 whole entry, looked up): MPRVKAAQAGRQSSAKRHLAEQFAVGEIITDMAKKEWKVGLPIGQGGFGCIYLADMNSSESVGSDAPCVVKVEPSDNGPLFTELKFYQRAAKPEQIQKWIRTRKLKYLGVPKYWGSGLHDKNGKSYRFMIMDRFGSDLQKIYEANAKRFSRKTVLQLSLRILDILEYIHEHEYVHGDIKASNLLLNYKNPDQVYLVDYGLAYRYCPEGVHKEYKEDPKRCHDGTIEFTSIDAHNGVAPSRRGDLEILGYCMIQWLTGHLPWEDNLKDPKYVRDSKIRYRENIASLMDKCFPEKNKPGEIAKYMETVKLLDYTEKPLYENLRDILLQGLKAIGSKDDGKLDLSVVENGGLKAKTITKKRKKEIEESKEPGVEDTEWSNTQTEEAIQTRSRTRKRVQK

WNK3 (human) = WNK3 (human) (UniProt Q9BYP7)
FGFR3 (human) = FGFR3 (human) (UniProt P22607)
NUAK2 (human) = NUAK2 (human) (UniProt Q9H093)
CSNK1G1 (human) = CSNK1G1 (human) (UniProt Q9HCP0)
STK16 (human) = STK16 (human) (UniProt O75716)
HCK (human) = HCK (human) (UniProt P08631)
Chain of HCK (human) (P08631 whole entry, looked up): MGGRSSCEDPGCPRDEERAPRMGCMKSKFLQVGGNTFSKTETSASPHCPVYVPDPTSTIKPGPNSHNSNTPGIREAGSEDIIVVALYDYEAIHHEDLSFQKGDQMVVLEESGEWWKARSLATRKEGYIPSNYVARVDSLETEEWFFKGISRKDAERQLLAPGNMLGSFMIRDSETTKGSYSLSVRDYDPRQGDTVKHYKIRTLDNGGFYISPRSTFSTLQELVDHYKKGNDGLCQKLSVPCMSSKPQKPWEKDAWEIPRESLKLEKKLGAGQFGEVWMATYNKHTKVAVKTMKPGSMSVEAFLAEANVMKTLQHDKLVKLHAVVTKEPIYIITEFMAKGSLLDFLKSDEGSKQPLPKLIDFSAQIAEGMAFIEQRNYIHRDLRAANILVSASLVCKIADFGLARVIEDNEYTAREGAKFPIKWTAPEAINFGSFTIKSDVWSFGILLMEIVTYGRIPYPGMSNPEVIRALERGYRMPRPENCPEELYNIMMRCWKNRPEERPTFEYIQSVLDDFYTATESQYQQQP

SRPK1 (human) = SRPK1 (human) (UniProt Q96SB4)
CAMKK1 (human) = CAMKK1 (human) (UniProt Q8N5S9)
DYRK4 (human) = DYRK4 (human) (UniProt Q9NR20)
WEE1 (human) = WEE1 (human) (UniProt P30291)
LIMK1 (human) = LIMK1 (human) (UniProt P53667)
GSK3B (human) = GSK3B (human) (UniProt P49841)
ULK3 (human) = ULK3 (human) (UniProt Q6PHR2)
AURKB (human) = AURKB (human) (UniProt Q96GD4)
PNCK (human) = PNCK (human) (UniProt Q6P2M8)
EPHB2 (human) = EPHB2 (human) (UniProt P29323)
FRK (human) = FRK (human) (UniProt P42685)
Chain of FRK (human) (P42685 whole entry, looked up): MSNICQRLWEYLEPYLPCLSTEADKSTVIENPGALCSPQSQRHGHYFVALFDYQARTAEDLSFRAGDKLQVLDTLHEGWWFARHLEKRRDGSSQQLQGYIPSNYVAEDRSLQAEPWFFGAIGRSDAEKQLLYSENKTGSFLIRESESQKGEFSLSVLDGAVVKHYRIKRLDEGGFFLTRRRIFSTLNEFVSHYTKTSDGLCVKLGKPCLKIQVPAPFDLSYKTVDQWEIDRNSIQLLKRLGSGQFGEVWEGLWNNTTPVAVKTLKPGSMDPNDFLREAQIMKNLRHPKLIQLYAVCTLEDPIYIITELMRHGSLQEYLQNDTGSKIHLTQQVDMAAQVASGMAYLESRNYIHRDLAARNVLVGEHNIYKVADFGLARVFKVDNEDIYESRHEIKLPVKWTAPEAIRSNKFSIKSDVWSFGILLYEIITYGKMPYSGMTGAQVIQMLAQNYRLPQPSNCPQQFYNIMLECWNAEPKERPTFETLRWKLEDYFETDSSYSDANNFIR

PLK2 (human) = PLK2 (human) (UniProt Q9NYY3)
FES (human) = FES (human) (UniProt P07332)
EPHA1 (human) = EPHA1 (human) (UniProt P21709)
MYO3B (human) = MYO3B (human) (UniProt Q8WXR4)
MAPK13 (human) = MAPK13 (human) (UniProt O15264)
DCLK2 (human) = DCLK2 (human) (UniProt Q8N568)
PRKG1 (human) = PRKG1 (human) (UniProt Q13976)
[1] = biological target: JAK1 JH1 catalytic (human) (UniProt P23458)
BMX (human) = BMX (human) (UniProt P51813)
[2] = biological target: TYK2 JH1 catalytic (human) (UniProt P29597)
Chain of TYK2 JH1 catalytic (human) (P29597 whole entry, looked up): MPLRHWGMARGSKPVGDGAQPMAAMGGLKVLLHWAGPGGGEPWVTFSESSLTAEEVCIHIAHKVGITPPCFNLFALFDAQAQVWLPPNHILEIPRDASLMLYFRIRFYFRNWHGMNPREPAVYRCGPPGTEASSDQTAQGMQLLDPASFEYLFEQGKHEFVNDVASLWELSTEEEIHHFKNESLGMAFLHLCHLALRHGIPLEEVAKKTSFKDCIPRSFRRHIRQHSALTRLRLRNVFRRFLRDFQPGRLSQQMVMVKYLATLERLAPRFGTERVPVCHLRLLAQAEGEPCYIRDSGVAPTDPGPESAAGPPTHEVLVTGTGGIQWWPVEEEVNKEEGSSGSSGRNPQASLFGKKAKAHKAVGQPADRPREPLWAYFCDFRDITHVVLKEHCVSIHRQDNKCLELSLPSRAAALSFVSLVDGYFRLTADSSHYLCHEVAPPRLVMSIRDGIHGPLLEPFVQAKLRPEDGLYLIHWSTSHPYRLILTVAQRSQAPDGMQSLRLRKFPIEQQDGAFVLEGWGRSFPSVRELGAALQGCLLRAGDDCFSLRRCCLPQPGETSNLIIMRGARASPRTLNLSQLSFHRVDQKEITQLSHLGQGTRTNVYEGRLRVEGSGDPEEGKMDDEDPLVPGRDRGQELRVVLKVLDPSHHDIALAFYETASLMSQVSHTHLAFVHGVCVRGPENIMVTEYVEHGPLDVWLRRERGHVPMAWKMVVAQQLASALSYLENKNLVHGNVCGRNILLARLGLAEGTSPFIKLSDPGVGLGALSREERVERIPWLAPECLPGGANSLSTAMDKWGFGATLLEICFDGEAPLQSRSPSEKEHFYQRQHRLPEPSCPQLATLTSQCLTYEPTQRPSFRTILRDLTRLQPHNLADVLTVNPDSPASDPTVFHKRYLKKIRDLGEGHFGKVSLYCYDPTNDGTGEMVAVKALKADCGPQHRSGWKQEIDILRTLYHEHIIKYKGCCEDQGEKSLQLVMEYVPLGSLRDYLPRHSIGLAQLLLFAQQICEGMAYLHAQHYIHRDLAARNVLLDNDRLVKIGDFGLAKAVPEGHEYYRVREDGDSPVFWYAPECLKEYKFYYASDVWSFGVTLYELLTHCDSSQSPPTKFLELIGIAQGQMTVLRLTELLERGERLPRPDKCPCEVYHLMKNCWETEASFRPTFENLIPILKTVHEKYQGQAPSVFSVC

FYN (human) = FYN (human) (UniProt P06241)
FGFR1 (human) = FGFR1 (human) (UniProt P11362)
PTK2B (human) = PTK2B (human) (UniProt Q14289)
Chain of PTK2B (human) (Q14289 whole entry, looked up): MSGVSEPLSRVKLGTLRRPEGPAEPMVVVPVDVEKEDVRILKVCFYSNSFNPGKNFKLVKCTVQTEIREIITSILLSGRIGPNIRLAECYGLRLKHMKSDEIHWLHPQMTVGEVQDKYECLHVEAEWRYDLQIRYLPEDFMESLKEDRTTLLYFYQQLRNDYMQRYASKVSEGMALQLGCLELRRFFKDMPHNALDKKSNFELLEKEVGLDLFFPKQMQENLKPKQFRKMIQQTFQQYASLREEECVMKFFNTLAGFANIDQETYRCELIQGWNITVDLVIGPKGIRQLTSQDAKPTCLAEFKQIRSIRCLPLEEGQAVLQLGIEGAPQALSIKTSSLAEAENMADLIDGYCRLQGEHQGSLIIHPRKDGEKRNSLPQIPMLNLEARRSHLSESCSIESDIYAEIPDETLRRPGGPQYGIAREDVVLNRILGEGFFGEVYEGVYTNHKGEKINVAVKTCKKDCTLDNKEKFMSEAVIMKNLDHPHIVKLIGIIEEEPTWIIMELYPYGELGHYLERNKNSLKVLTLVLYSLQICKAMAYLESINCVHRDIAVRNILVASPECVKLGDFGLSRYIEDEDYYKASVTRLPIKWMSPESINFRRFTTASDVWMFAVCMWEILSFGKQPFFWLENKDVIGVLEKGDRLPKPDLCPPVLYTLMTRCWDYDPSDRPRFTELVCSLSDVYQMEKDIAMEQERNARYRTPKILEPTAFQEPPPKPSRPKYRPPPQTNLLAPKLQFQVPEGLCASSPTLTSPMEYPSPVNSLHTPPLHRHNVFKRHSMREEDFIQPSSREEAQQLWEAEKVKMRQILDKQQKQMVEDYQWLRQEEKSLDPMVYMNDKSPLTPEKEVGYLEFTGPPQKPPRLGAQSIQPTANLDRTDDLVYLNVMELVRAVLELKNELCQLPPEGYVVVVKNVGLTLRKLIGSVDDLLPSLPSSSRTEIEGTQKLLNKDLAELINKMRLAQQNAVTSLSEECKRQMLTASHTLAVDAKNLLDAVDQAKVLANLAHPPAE

EPHA6 (human) = EPHA6 (human) (UniProt Q9UF33)
GSG2 (human) = GSG2 (human) (UniProt Q8TF76)
PASK (human) = PASK (human) (UniProt Q96RG2)
Chain of PASK (human) (Q96RG2 whole entry, looked up): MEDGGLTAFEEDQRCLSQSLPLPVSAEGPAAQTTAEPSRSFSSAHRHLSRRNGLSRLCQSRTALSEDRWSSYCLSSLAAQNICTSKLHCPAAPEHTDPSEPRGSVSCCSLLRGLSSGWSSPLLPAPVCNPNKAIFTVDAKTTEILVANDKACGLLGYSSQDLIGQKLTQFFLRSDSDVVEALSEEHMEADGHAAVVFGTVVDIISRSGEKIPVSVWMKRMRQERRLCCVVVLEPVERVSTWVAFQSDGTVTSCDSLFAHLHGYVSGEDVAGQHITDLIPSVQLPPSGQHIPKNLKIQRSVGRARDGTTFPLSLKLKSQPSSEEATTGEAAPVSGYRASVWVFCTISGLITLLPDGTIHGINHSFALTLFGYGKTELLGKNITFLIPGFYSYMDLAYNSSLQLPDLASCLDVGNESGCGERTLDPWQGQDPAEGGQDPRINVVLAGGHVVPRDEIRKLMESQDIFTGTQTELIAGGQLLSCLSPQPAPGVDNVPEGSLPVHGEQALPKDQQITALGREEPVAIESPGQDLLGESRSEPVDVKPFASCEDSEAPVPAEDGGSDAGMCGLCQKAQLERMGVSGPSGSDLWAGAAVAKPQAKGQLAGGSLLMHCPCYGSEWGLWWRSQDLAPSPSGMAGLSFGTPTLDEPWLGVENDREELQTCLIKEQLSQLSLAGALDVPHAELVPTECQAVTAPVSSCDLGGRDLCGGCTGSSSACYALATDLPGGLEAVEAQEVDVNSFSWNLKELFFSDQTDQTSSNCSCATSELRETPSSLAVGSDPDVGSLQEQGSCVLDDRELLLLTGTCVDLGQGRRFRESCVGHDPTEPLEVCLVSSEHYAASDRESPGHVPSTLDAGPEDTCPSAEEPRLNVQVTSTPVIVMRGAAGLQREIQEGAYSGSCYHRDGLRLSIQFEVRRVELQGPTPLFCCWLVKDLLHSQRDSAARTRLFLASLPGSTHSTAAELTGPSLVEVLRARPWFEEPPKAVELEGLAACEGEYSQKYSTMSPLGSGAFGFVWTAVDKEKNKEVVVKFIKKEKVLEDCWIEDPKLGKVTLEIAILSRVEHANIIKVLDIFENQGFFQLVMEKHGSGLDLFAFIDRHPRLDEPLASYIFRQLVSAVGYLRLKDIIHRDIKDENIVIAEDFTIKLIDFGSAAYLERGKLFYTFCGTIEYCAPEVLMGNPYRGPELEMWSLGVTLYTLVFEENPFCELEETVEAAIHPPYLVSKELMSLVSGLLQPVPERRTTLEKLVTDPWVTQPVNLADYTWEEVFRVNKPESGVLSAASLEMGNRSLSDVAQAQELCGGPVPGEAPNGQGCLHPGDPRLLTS

PRKACG (human) = PRKACG (human) (UniProt P22612)
PIM3 (human) = PIM3 (human) (UniProt Q86V86)
CSNK2A2 (human) = CSNK2A2 (human) (UniProt P19784)
MAP2K1 (human) = MAP2K1 (human) (UniProt Q02750)

## O=C1C(Cl)=C(N2C(=O)CCC2=O)C(=O)c2ccccc21
MET (human)
  residual activity: 109%
AKT3 (human)
  residual activity: 105%
ABL2 (human)
  residual activity: 106%
MKNK2 (human)
  residual activity: 84.5%
VRK1 (human)
  residual activity: 92.4%
WNK3 (human)
  residual activity: 96.4%
FGFR3 (human)
  residual activity: 106%
NUAK2 (human)
  residual activity: 86.7%
CSNK1G1 (human)
  residual activity: 147%
STK16 (human)
  residual activity: 100%
HCK (human)
  residual activity: 94.2%
SRPK1 (human)
  residual activity: 103%
CAMKK1 (human)
  residual activity: 112%
DYRK4 (human)
  residual activity: 94.1%
WEE1 (human)
  residual activity: 93%
LIMK1 (human)
  residual activity: 92.5%
GSK3B (human)
  residual activity: 100%
ULK3 (human)
  residual activity: 102%
AURKB (human)
  residual activity: 103%
PNCK (human)
  residual activity: 100%
EPHB2 (human)
  residual activity: 98.7%
FRK (human)
  residual activity: 103%
PLK2 (human)
  residual activity: 96%
FES (human)
  residual activity: 97.5%
EPHA1 (human)
  residual activity: 97.6%
MYO3B (human)
  residual activity: 112%
MAPK13 (human)
  residual activity: 106%
DCLK2 (human)
  residual activity: 100%
PRKG1 (human)
  residual activity: 104% and 97.8%
[1]
  residual activity: 107%
BMX (human)
  residual activity: 103%
[2]
  residual activity: 102%
FYN (human)
  residual activity: 111%
FGFR1 (human)
  residual activity: 99.5%
PTK2B (human)
  residual activity: 105%
EPHA6 (human)
  residual activity: 89.5%
GSG2 (human)
  residual activity: 101%
PASK (human)
  residual activity: 103%
PRKACG (human)
  residual activity: 95.1%
PIM3 (human)
  residual activity: 101%
CSNK2A2 (human)
  residual activity: 100%
MAP2K1 (human)
  residual activity: 76.5%

## Cc1cccc(-c2nc(C(C)(C)C)[nH]c2-c2ccc3c(c2)OCO3)n1
MET (human)
  residual activity: 82.7%
AKT3 (human)
  residual activity: 94.7%
ABL2 (human)
  residual activity: 95.7%
MKNK2 (human)
  residual activity: 87.8%
VRK1 (human)
  residual activity: 97.5%
WNK3 (human)
  residual activity: 94.1%
FGFR3 (human)
  residual activity: 96.6%
NUAK2 (human)
  residual activity: 138%
CSNK1G1 (human)
  residual activity: 79.4%
STK16 (human)
  residual activity: 90.1%
HCK (human)
  residual activity: 90.7%
SRPK1 (human)
  residual activity: 96.5%
CAMKK1 (human)
  residual activity: 103%
DYRK4 (human)
  residual activity: 89.7%
WEE1 (human)
  residual activity: 81.5%
LIMK1 (human)
  residual activity: 86.2%
GSK3B (human)
  residual activity: 96.8%
ULK3 (human)
  residual activity: 80.4%
AURKB (human)
  residual activity: 96.5%
PNCK (human)
  residual activity: 101%
EPHB2 (human)
  residual activity: 93%
FRK (human)
  residual activity: 98.8%
PLK2 (human)
  residual activity: 92.1%
FES (human)
  residual activity: 108%
EPHA1 (human)
  residual activity: 124%
MYO3B (human)
  residual activity: 79.2%
MAPK13 (human)
  residual activity: 107%
DCLK2 (human)
  residual activity: 101%
PRKG1 (human)
  residual activity: 74.6% and 91%
[1]
  residual activity: 96.1%
BMX (human)
  residual activity: 82%
[2]
  residual activity: 102%
FYN (human)
  residual activity: 108%
FGFR1 (human)
  residual activity: 90.8%
PTK2B (human)
  residual activity: 91.3%
EPHA6 (human)
  residual activity: 92.7%
GSG2 (human)
  residual activity: 78.7%
PASK (human)
  residual activity: 78.9%
PRKACG (human)
  residual activity: 119%
PIM3 (human)
  residual activity: 106%
CSNK2A2 (human)
  residual activity: 83.6%
MAP2K1 (human)
  residual activity: 93.3%

## O=C1Nc2ccc(Br)cc2/C1=C\c1cc2c([nH]1)CCCC2
MET (human)
  residual activity: 81.6%
AKT3 (human)
  residual activity: 96.6%
ABL2 (human)
  residual activity: 82.6%
MKNK2 (human)
  residual activity: 87.1%
VRK1 (human)
  residual activity: 108%
WNK3 (human)
  residual activity: 93.8%
FGFR3 (human)
  residual activity: 55.8%
NUAK2 (human)
  residual activity: 133%
CSNK1G1 (human)
  residual activity: 102%
STK16 (human)
  residual activity: 94.3%
HCK (human)
  residual activity: 88.5%
SRPK1 (human)
  residual activity: 98.3%
CAMKK1 (human)
  residual activity: 69.6%
DYRK4 (human)
  residual activity: 102%
WEE1 (human)
  residual activity: 95.9%
LIMK1 (human)
  residual activity: 83%
GSK3B (human)
  residual activity: 94.1%
ULK3 (human)
  residual activity: 55.5%
AURKB (human)
  residual activity: 56.7%
PNCK (human)
  residual activity: 98.6%
EPHB2 (human)
  residual activity: 85.4%
FRK (human)
  residual activity: 91%
PLK2 (human)
  residual activity: 102%
FES (human)
  residual activity: 83.8%
EPHA1 (human)
  residual activity: 93.1%
MYO3B (human)
  residual activity: 55.1%
MAPK13 (human)
  residual activity: 100%
DCLK2 (human)
  residual activity: 98.2%
PRKG1 (human)
  residual activity: 77% and 87.9%
[1]
  residual activity: 99.3%
BMX (human)
  residual activity: 89.9%
[2]
  residual activity: 86%
FYN (human)
  residual activity: 87.5%
FGFR1 (human)
  residual activity: 76.7%
PTK2B (human)
  residual activity: 82.4%
EPHA6 (human)
  residual activity: 89.2%
GSG2 (human)
  residual activity: 88%
PASK (human)
  residual activity: 98.9%
PRKACG (human)
  residual activity: 98.1%
PIM3 (human)
  residual activity: 87.5%
MAP2K1 (human)
  residual activity: 84.8%

## COc1cc2ncnc(Nc3ccc(Oc4ccccc4)cc3)c2cc1OC
AKT3 (human)
  residual activity: 105%
ABL2 (human)
  residual activity: 96.4%
MKNK2 (human)
  residual activity: 47.9%
VRK1 (human)
  residual activity: 98.2%
WNK3 (human)
  residual activity: 87.8%
FGFR3 (human)
  residual activity: 87.1%
NUAK2 (human)
  residual activity: 137%
CSNK1G1 (human)
  residual activity: 90%
STK16 (human)
  residual activity: 107%
HCK (human)
  residual activity: 13.5%
SRPK1 (human)
  residual activity: 105%
CAMKK1 (human)
  residual activity: 93.1%
DYRK4 (human)
  residual activity: 97.3%
WEE1 (human)
  residual activity: 99.1%
LIMK1 (human)
  residual activity: 89%
GSK3B (human)
  residual activity: 109%
ULK3 (human)
  residual activity: 94.7%
AURKB (human)
  residual activity: 50.9%
PNCK (human)
  residual activity: 97.7%
EPHB2 (human)
  residual activity: 99.7%
FRK (human)
  residual activity: 72.2%
PLK2 (human)
  residual activity: 104%
FES (human)
  residual activity: 99.6%
EPHA1 (human)
  residual activity: 95.6%
MYO3B (human)
  residual activity: 103%
MAPK13 (human)
  residual activity: 103%
DCLK2 (human)
  residual activity: 99.5%
PRKG1 (human)
  residual activity: 92.5% and 93.6%
[1]
  residual activity: 105%
BMX (human)
  residual activity: 76.1%
[2]
  residual activity: 107%
FYN (human)
  residual activity: 26.9%
FGFR1 (human)
  residual activity: 85%
PTK2B (human)
  residual activity: 89%
EPHA6 (human)
  residual activity: 64.8%
GSG2 (human)
  residual activity: 92%
PASK (human)
  residual activity: 104%
PRKACG (human)
  residual activity: 137%
PIM3 (human)
  residual activity: 96.9%
CSNK2A2 (human)
  residual activity: 98.2%
MAP2K1 (human)
  residual activity: 85.9%
